The subject of assay [1] is M. phlei DSM 750. The experiment in a line: MIC, microdilution assay (CLSI M07-A9). Format: cell-based. The settings on record: Mycolicibacterium phlei, DSM750, MHBII media, 37° C., 20 h, tested 64 to 0.008 μg/mL. As for the experimental part: (§1) The tests were performed using the micro dilution method.
(§2) The determination of MIC values was performed according to the ninth edition of the Approved Standard M07-A9 (CLSI. Methods for Dilution Antimicrobial Susceptibility Tests for Bacteria That Grow Aerobically; Approved Standard-Ninth Edition. CLSI document M07-A9. Wayne, PA: Clinical and Laboratory Standards Institute; 2012.)
(§3) The test was carried out for different bacterial strains (E. coli DSM 1116, E. coli BW25113 [gram negative], B. subtilis DSM 10 [gram positive], M. luteus DSM 1790 [gram positive], S. typhimurium TA100 [gram negative]) and M. phlei DSM 750. 20 µL of cryo stock of each strain were inoculated in 20 mL of LB media (Lysogeny broth: 10 g/L peptone, 5 g/L yeast extract, 5 g/L NaCl) followed by incubation over night at 37° C., 200 rpm. The test inoculum was adjusted by the 0.5 McFarland Standard (OD625 from 0.08 to 0.1). Within 15 min of preparation, the adjusted inoculum suspension was diluted in MHBII media (BBL TM Mueller-Hinton Broth II, Becton, Dickinson and Company, New Jersey/USA) so that each well contained approximately 5×10^5 CFU/mL in a final volume of 100 μL. 95 μL of the inoculum were applied per well and 5 μL of the (diluted) antibiotic substance were added.
(§4) Previously the dry antibiotic compounds were dissolved in DMSO (100%) with a concentration of 2560 μg/mL and the resulting stock solutions were further diluted in DMSO (100%). […] of each antibiotic dilution were applied to the microdilution tray to reach final concentrations of 64 μg/mL to 0.008 μg/ml. One row of each well plate was left as a growth control without antibiotic substances and another row of the microdilution tray was used as sterility control (only MHB II-media). The antimicrobial effect of the solvent (DMSO) was tested by adding 5 μL DMSO to several wells without antibiotics. Purity check and cell titer control were performed according to International Standard M07-A9 on Mueller-Hinton II Agar (Mueller Hinton II Broth, 15 g/L agar-agar). Both microdilution trays and agar plates were incubated at 37° C. for 20 h and subsequently analyzed visually.
(§5) The potency of an antibiotic is determined by the minimum inhibitory concentration (MIC). Contrary to intuition, a particularly low value is equated with a high potency.

For assay [2], the system named is E. coli BW25113. The experiment in a line: MIC, microdilution assay (CLSI M07-A9). The assay is classed as cell-based. The settings on record: Escherichia coli, Gram-negativ, MHBII media, 37° C., 20 h, tested 64 to 0.008 μg/mL. The procedure: as §1, §2, §3, §4, §5
For orientation: Dilution methods test growth across graded concentrations, often in twofold steps.

The subject of assay [3] is S. typhimurium TA100. The experiment in a line: MIC, microdilution assay (CLSI M07-A9). The assay is classed as cell-based. The settings on record: Salmonella enterica, Gram-negativ, MHBII media, 37° C., 20 h, tested 64 to 0.008 μg/mL, read-out: MIC S. Typhimirium. The procedure:
as §1, §2, §3, §4, §5

Assay [4] deals with B. subtilis DSM 10. Description: MIC, microdilution assay (CLSI M07-A9). The settings on record: Bacillus subtilis, DSM10, Gram-positiv, MHBII media, 37° C., 20 h, tested 64 to 0.008 μg/mL. Format: cell-based. As for the experimental part: as §1, §2, §3, §4, §5
Assay [5] concerns selected strains. Description: Antibacterial activity against selected strains, overall comparison with lead structure (Table 1). The assay is classed as cell-based. The conditions noted are these: D-variations in Table 1. As for the experimental part:
as §1, §2
The test was carried out for different bacterial strains (E. coli DSM 1116, E. coli BW25113 [gram negative], B. subtilis DSM 10 [gram positive], M. luteus DSM 1790 [gram positive], S. typhimurium TA100 [gram negative]) and M. phlei DSM 750. 20 µL of cryo stock of each strain were inoculated in 20 mL of LB media (Lysogeny broth: 10 g/L peptone, 5 g/L yeast extract, 5 g/L NaCl) followed by incubation over night at 37° C., 200 rpm. The test inoculum was adjusted by the 0.5 McFarland Standard (OD625 from 0.08 to 0.1). […]
Previously the dry antibiotic compounds were dissolved in DMSO (100%) with a concentration of 2560 μg/mL and the resulting stock solutions were further diluted in DMSO (100%). […] Both microdilution trays and agar plates were incubated at 37° C. for 20 h and subsequently analyzed visually.
The potency of an antibiotic is determined by the minimum inhibitory concentration (MIC). […]

For assay [6], the system named is E. Coli. (50% human serum). The experiment in a line: MIC, microdilution assay in presence of 50% human serum. The conditions noted are these: Escherichia coli, 20 h, Gram-negativ. Format: cell-based. The procedure: E. coli BW25113, S. typhimurium TA100; Bacillus subtilis DSM10; and M. phlei DSM 750 and human serum
as §1, §2, §3, §4, §5

Assay [7] relates to Pantoea dispersa. The settings on record: humans infected with the pathogen; background statement; cited from earlier work.
In assay [8] the test system is M. luteus DSM 1790. The experiment in a line: MIC, microdilution assay (CLSI M07-A9). The assay is classed as cell-based. The conditions noted are these: Micrococcus luteus, DSM1790, Gram-positiv, MHBII media, 37° C., 20 h, tested 64 to 0.008 μg/mL. The procedure:
as §1, §2, §3, §4, §5

In brackets after ≈: the same amount, converted by molar mass.

Broadly, the MIC is the smallest concentration in the dilution series that meets the test's criterion for growth inhibition. Consider `COc1c(NC(=O)c2ccc(NC(=O)c3ccc(NC(=O)[C@H](Cc4c[nH]nn4)NC(=O)c4ccc(NC(=O)/C(C)=C/c5ccc(O)cc5)cc4)cc3Cl)c(OC)c2O)ccc(C(=O)O)c1O` [Compound 3], for which the minimal inhibitory concentration (MIC) in assay [1] is 0.5 µg/mL (≈ 0.544 µM); in assay [2], at most 0.016 µg/mL; in assay [3], at most 0.016 µg/mL; in assay [4], 0.063 µg/mL (≈ 0.0685 µM); in assay [6] it was 0.5 µg/mL. Further, in assay [5], the “Activity compared with the lead structure (0)” value is listed as “about as active as the lead structure (0)”.
On to `CN(C)c1cc(NC(=O)CNC(C)(C)C)c(O)c2c1C[C@H]1C[C@H]3[C@H](N(C)C)C(O)=C(C(N)=O)C(=O)[C@@]3(O)C(O)=C1C2=O` [tigecycline], for which, in assay [7], the “Treatment outcome of Pantoea dispersa infection” value (shortened to “Treatment outcome”) is on record as “successful”.
Turning to `O=C(O)[C@H]1/C(=C/CO)O[C@@H]2CC(=O)N21` [Clavulanic acid], the “Treatment outcome” value in assay [7] is “ineffective”.
On to `COc1c(NC(=O)c2ccc(NC(=O)c3c(F)cc(NC(=O)[C@H](Cc4c[nH]nn4)NC(=O)c4ccc(NC(=O)/C(C)=C/c5ccc(O)cc5)cc4)cc3F)c(OC)c2O)ccc(C(=O)O)c1O` [Compound 2], for which the MIC in assay [1] was 1 µg/mL (≈ 1.09 µM); in assay [2], at most 0.016 µg/mL; in assay [3], at most 0.016 µg/mL; in assay [8] it was 0.25 µg/mL (≈ 0.271 µM); in assay [4] it was 0.125 µg/mL (≈ 0.136 µM); in assay [6] it was 0.5 µg/mL. Also, the “Activity compared with the lead structure (0)” value in assay [5] is “about as active as the lead structure (0)”.
Turning to `COc1c(NC(=O)c2ccc(NC(=O)c3ccc(NC(=O)[C@H](Cc4c[nH]nn4)NC(=O)c4ccc(NC(=O)/C(C)=C/c5ccc(O)cc5)cc4)cn3)c(OC)c2O)ccc(C(=O)O)c1O` [Compound 0, reference compound], the minimal inhibitory concentration (MIC) in assay [1] is 0.125 µg/mL (≈ 0.141 µM); in assay [2], at most 0.016 µg/mL; in assay [3], at most 0.016 µg/mL; in assay [8], 0.031 µg/mL (≈ 0.035 µM); in assay [4], 0.031 µg/mL (≈ 0.035 µM); in assay [6], 0.5 µg/mL.
With `COc1c(NC(=O)c2ccc(NC(=O)c3ccc(NC(=O)[C@H](Cc4c[nH]nn4)NC(=O)c4ccc(NC(=O)/C(C)=C/c5ccc(O)cc5)cc4)cc3F)c(OC)c2O)ccc(C(=O)O)c1O` [Compound 1], the MIC in assay [1] is 1 µg/mL (≈ 1.11 µM); in assay [2] it was 0.016 µg/mL (≈ 0.0177 µM); in assay [3], at most 0.016 µg/mL; in assay [8], 0.031 µg/mL (≈ 0.0343 µM); in assay [4] it was 0.125 µg/mL (≈ 0.138 µM); in assay [6] it was 1 µg/mL.
In the case of `COc1c(NC(=O)c2ccc(NC(=O)c3ccc(NC(=O)[C@H](Cc4c[nH]nn4)NC(=O)c4ccc(NC(=O)/C(C)=C/c5ccc(O)cc5)cc4)cc3I)c(OC)c2O)ccc(C(=O)O)c1O` [Compound 8], the minimum inhibitory concentration (MIC) was 4 µg/mL (≈ 3.96 µM) in assay [1]; 0.063 µg/mL (≈ 0.0623 µM) in assay [2]; 0.031 µg/mL (≈ 0.0307 µM) in assay [3]; 4 µg/mL (≈ 3.96 µM) in assay [8]; 0.5 µg/mL (≈ 0.495 µM) in assay [4]; at least 8 µg/mL in assay [6].
As to `COc1c(NC(=O)c2ccc(NC(=O)c3ccc(NC(=O)[C@H](Cc4c[nH]nn4)NC(=O)c4ccc(NC(=O)/C(C)=C/c5ccc(O)cc5)cc4)cc3C(F)(F)F)c(OC)c2O)ccc(C(=O)O)c1O` [Compound 5], the MIC in assay [1] is 8 µg/mL (≈ 8.4 µM); in assay [2] it was 0.125 µg/mL (≈ 0.131 µM); in assay [3], 0.031 µg/mL (≈ 0.0325 µM); in assay [8] it was 4 µg/mL (≈ 4.2 µM); in assay [4], 4 µg/mL (≈ 4.2 µM); in assay [6], at least 8 µg/mL.
As for `COc1c(NC(=O)c2ccc(NC(=O)c3ccc(NC(=O)[C@H](Cc4c[nH]nn4)NC(=O)c4ccc(NC(=O)/C(C)=C/c5ccc(O)cc5)cc4)cc3Br)c(OC)c2O)ccc(C(=O)O)c1O` [Compound 6], the minimal inhibitory concentration (MIC) in assay [1] was 1 µg/mL (≈ 1.04 µM); in assay [2] it was 0.016 µg/mL (≈ 0.0166 µM); in assay [3], 0.016 µg/mL (≈ 0.0166 µM); in assay [8], 0.5 µg/mL (≈ 0.519 µM); in assay [4], 0.125 µg/mL (≈ 0.13 µM); in assay [6], 1 µg/mL.
colistin: in assay [7], the “Treatment outcome” value is recorded as “successful”.

(Values after patent US20250340522A1, “ALBICIDIN DERIVATIVES, THEIR USE AND SYNTHESIS” (priority 2022, published 2025).)
